The text below walks through data of EP4667464A1 (Cyrus Therapeutics Inc., priority 2023, dated 2024).

Some results are limits rather than exact numbers.

The first test addresses T1, KRAS G12C::SOS1 (Homo sapiens, UniProt Q07889).
T1 construct: purchased CISBIO 64KRASG12PEH
T1 sequence (Q07889 1-1333): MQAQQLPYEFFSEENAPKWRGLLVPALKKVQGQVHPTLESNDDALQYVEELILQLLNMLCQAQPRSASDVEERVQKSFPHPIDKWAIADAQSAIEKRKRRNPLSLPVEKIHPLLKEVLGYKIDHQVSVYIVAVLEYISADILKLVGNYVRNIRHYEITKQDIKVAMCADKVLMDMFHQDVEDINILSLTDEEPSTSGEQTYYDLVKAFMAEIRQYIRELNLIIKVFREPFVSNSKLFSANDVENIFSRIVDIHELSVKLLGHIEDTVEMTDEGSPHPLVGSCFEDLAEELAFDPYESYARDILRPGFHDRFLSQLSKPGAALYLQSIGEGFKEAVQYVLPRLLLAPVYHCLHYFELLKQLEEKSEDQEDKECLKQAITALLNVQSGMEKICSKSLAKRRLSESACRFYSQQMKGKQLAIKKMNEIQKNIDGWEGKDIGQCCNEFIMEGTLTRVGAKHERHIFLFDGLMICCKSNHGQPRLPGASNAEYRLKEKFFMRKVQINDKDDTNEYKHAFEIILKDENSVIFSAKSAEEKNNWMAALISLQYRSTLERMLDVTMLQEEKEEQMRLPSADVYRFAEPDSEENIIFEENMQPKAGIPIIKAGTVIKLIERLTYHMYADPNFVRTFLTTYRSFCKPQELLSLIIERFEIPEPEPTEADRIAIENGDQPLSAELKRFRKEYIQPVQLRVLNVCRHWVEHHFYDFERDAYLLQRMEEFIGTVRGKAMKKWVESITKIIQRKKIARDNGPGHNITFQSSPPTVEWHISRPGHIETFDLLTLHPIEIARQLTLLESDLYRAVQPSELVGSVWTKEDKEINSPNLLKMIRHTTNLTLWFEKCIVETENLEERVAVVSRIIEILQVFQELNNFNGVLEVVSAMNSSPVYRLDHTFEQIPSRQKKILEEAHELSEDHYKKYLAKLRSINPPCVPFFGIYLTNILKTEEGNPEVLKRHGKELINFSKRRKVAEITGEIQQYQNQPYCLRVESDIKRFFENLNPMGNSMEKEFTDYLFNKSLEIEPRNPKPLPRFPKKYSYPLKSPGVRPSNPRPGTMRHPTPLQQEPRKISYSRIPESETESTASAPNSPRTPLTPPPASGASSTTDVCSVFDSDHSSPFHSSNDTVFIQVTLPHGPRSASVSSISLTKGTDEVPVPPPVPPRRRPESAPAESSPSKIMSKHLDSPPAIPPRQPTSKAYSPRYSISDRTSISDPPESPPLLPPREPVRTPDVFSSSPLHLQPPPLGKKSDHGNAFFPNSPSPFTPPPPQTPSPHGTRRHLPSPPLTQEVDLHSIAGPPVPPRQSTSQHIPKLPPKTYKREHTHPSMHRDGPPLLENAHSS
Put plainly: KRAS G12C::SOS1 protein-protein interaction (PPI) inhibition assay (HTRF). The class given is binding.
Conditions: not given
How it is done: Protein-protein interaction between SOS1 and KRAS^G12c was detected using KRAS G12C/SOS1 binding kit from CISBIO (64KRASG12PEH, CISBIO, FRANCE) according to the manufacturer's assay method. Briefly, the maximum concentration of an inhibitor sample was set to be 3 µM, and the inhibitor sample was diluted 7 times by 1/3, and samples having a total of 8 concentrations were prepared. In HTRF (Homogeneous Time-Resolved Fluorescence) exclusive 96-well low-volume white plate (66PL96005, CISBIO, FRANCE), 2 µL of an inhibitor sample prepared for each concentration, 5 µL of a mixed solution of Tag1 labeled KRAS^G12c protein and GTP diluted with the dilution solution provided by the manufacturer, and 5 µL of Tag2 labeled SOS1 protein were mixed, and added with 8 µL of a diluted solution where anti-Tag1 KRAS^G12C XL665 (HTRF acceptor) labeled antibody and anti-Tag2 SOS1 Terbium cryptate (HTRF donor) labeled antibody were mixed in an equal ratio and cultured at room temperature for 2 h.
With `COCC1(c2cccc([C@@H](C)NC(=O)c3ccc(=O)n(-c4cncc(-c5cnnn5C)c4)n3)c2F)CC1` [Example 18, N-[(1R)-1-[2-fluoro-3-[1-(methoxymethyl)cyclopropyl]phenyl]ethyl]-1-[5-(3-methyltriazol-4-yl)-3-pyridyl]-6-oxo-pyridazine-3-carboxamide], the IC50 was > 150 nM.

Staying with this test, now noted: 8 concentrations from 3 µM, three replicates; read-out: KRAS G12C::SOS1 PPI.
As for `C[C@@H](NC(=O)c1ccc(=O)n(-c2cncc(-c3cnnn3C3COC3)c2)n1)c1cccc(C(F)(F)F)c1F` [Example 1-57, 1-[5-[1-(oxetan-3-yl)triazol-5-yl]-3-pyridyl]-6-oxo-N-[(1R)-1-[2-fluoro-3-(trifluoromethyl)phenyl]ethyl]pyridazine-3-carboxamide], the IC50 was 50 to 150 nM.

Consider `C[C@@H](NC(=O)c1ccc(=O)n(-c2cncc(-c3cnnn3C)c2)n1)c1cccc(C2=CCC2)c1F` (single isomer, unassigned) [Example 17], for which the IC50 is > 150 nM. On to `CNc1ncc(-n2nc(C(=O)N[C@H](C)c3cccc(C(F)(F)F)c3F)ccc2=O)cc1-c1cnnn1C` [Example 1-45, N-{(R)-1-[2-fluoro-3-(trifluoromethyl)phenyl]ethyl}-1-[6-(methylamino)-5-(1-methyl-1H-1,2,3-triazol-5-yl)-3-pyridyl]-6-oxo-1,6-dihydropyridazine-3-carboxamide], for which the IC50 was 50 to 150 nM. Consider `Cc1ncc(-n2nc(C(=O)N[C@H](C)c3cccc(C(F)(F)CO)c3C)ccc2=O)cc1-c1cnnn1C` [Example 1-28, N-[(1R)-1-[3-(1,1-difluoro-2-hydroxy-ethyl)-2-methyl-phenyl]ethyl]-1-[6-methyl-5-(3-methyltriazol-4-yl)-3-pyridyl]-6-oxo-pyridazine-3-carboxamide], for which the IC50 was > 150 nM. In the case of `C[C@@H](NC(=O)c1ccc(=O)n(-c2cncc(-c3cnnn3C)c2)n1)c1cccc(C2(CF)CC2)c1F` (single isomer, unassigned) [Example 16], the IC50 is > 150 nM. Consider `C[C@@H](NC(=O)c1cc(N[C@H](C)c2cccc(C(F)(F)F)c2F)c(=O)n(-c2cncc(-c3cnnn3C)c2)n1)c1cccc(C(F)(F)F)c1F` [Example 1-44, N-{(R)-1-[2-fluoro-3-(trifluoromethyl)phenyl]ethyl}-5-{(R)-1-[2-fluoro-3-(trifluoromethyl)phenyl]ethylamino}-1-[5-(1-methyl-1H-1,2,3-triazol-5-yl)-3-pyridyl]-6-oxo-1,6-dihydropyridazine-3-carboxamide], for which the IC50 was > 150 nM. As for `C[C@@H](NC(=O)c1ccc(=O)n(-c2cnc(N(C)C)c(-c3cnnn3C)c2)n1)c1cccc(C(F)(F)F)c1F` [Example 6-6, N-{(R)-1-[2-fluoro-3-(trifluoromethyl)phenyl]ethyl}-1-[6-(dimethylamino)-5-(1-methyl-1H-1,2,3-triazol-5-yl)-3-pyridyl]-6-oxo-1,6-dihydropyridazine-3-carboxamide], the IC50 was 50 to 150 nM. `COc1ncc(-n2nc(C(=O)N[C@H](C)c3cccc(C(F)(F)F)c3F)ccc2=O)cc1-c1cnnn1C` [Example 6-5, N-{(R)-1-[2-fluoro-3-(trifluoromethyl)phenyl]ethyl}-1-[6-methoxy-5-(1-methyl-1H-1,2,3-triazol-5-yl)-3-pyridyl]-6-oxo-1,6-dihydropyridazine-3-carboxamide]: the IC50 fell in the range of 50 to 150 nM.

With `Cc1ncc(-n2nc(C(=O)N[C@H](C)c3cccc(C(F)F)c3F)ccc2=O)cc1-c1cnnn1C` [Example 1-47, N-{(R)-1-[3-(difluoromethyl)-2-fluorophenyl]ethyl}-1-[6-methyl-5-(1-methyl-1H-1,2,3-triazol-5-yl)-3-pyridyl]-6-oxo-1,6-dihydropyridazine-3-carboxamide], the IC50 is > 150 nM. As to `C[C@@H](NC(=O)c1ccc(=O)n(-c2cncc(-c3cnnn3C)c2)n1)c1cccc(C(F)(F)F)c1Cl` [Example 1-31, N-[(1R)-1-[2-chloro-3-(trifluoromethyl)phenyl]ethyl]-1-[5-(3-methyltriazol-4-yl)-3-pyridyl]-6-oxo-pyridazine-3-carboxamide], the IC50 was 50 to 150 nM.

The test is the same for the next values; noted with them: read-out: KRAS G12C::SOS1 PPI; 8 concentrations from 3 µM, three replicates.
With `C[C@@H](NC(=O)c1ccc(=O)n(-c2cncc(-c3cnnn3C)c2)n1)c1cccc(C2(CO)CC2)c1F` [Example 1-32, N-[(1R)-1-[2-fluoro-3-[1-(hydroxymethyl)cyclopropyl]phenyl]ethyl]-1-[5-(3-methyltriazol-4-yl)-3-pyridyl]-6-oxo-pyridazine-3-carboxamide], the IC50 is > 150 nM.

The target in the next test is T2, SOS1 (Homo sapiens, UniProt Q07889).
T2 construct: HIS-SOS1cat (160 nM; Cytoskeleton, US); His (N); purchased Cytoskeleton
T2 sequence (Q07889 564-1049 limits assumed): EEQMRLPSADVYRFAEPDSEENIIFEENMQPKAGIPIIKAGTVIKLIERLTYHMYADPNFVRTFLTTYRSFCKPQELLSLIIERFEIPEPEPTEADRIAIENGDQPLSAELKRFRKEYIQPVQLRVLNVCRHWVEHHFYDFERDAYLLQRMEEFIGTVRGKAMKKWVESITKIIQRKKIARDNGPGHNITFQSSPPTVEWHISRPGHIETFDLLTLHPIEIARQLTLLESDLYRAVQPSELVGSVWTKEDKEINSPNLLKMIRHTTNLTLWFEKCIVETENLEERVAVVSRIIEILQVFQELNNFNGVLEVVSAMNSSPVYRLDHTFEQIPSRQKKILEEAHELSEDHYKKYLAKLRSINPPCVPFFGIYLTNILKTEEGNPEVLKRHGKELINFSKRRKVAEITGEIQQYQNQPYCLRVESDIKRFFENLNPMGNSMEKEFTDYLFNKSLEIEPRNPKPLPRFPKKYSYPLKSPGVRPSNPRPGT
Kind of test: SOS-catalyzed nucleotide exchange assay (HTRF, SOS1-mediated GTP loading of KRAS G12D). The conditions noted are these: GST-KRAS G12D, HIS-SOS1cat, compound 128 pM to 10 µM; read-out: SOS-catalyzed nucleotide exchange assay. The format is biochemical. The method, then: SOS1 activity was measured by SOS1-mediated GTP loading quantification of KRAS^G12D. GTP loaded KRAS^G12D was detected by HTRF (Homogeneous Time Resolved Fluorescence) using anti-GST terbium (Cisbio, France) as a donor and a fluorescence GTP analogue (EDA-GTP-DY-647P1, [DY-647P1 labeled 2'/3'-O-(2-aminoethyl-carbamoyl)guanosine-5'-triphosphate (Jena bioscience, Germany)]) as an acceptor.
KRAS^G12D working solution was prepared by adding equal amounts of GST-KRAS^G12D (100 nM) and anti-GST-terbium (2 nM; Cisbio, France) to the assay buffer and culturing on ice for 10 minutes. […] Control solution was prepared by adding equal volumes of EDA-GTP-DY-647P1 and the assay buffer for normalization control to exclude GEF-independent GTP loading and background signals.
10 uL of the KRAS^G12D solution was added to each well and incubated for 30 minutes at room temperature while shaking. HTRF was measured using a Thermo Varioskan (excitation 334 nm, emission 665 nm). The IC50 of each inhibitor was analyzed using Graphad Prism.
(Time-resolved FRET reads energy transfer from a long-lived donor to a nearby acceptor.)
As for `[2H]C([2H])(O)C(F)(F)c1cccc([C@@H](C)NC(=O)c2ccc(=O)n(-c3cncc(-c4cnnn4C4COC4)c3)n2)c1F` [Example 1-71, (R)-N-(1-(3-(1,1-difluoro-2-hydroxyethyl-2,2-dideuterio)-2-fluorophenyl)ethyl)-1-(5-(1-(oxetan-3-yl)-1H-1,2,3-triazol-5-yl)pyridin-3-yl)-6-oxo-1,6-dihydropyridazine-3-carboxamide], the IC50 is < 50 nM.

On to `C[C@@H](NC(=O)c1ccc(=O)n(-c2cncc(-c3cnnn3C3COC3)c2)n1)c1cccc(C(F)(F)F)c1F` [Example 1-57, 1-[5-[1-(oxetan-3-yl)triazol-5-yl]-3-pyridyl]-6-oxo-N-[(1R)-1-[2-fluoro-3-(trifluoromethyl)phenyl]ethyl]pyridazine-3-carboxamide], for which the IC50 was < 50 nM.

For the compound `C[C@@H](NC(=O)c1cc(C(F)(F)F)c(=O)n(-c2cncc(-c3cnnn3C)c2)n1)c1cccc(C(F)(F)CO)c1F` [Example 1-72, (R)-N-(1-(3-(1,1-difluoro-2-hydroxyethyl)-2-fluorophenyl)ethyl)-1-(5-(1-methyl-1H-1,2,3-triazol-5-yl)pyridin-3-yl)-6-oxo-5-(trifluoromethyl)-1,6-dihydropyridazine-3-carboxamide], the IC50 was < 50 nM.

Regarding `C[C@@H](NC(=O)c1ccc(=O)n(-c2cncc(-c3cnnn3C3COC3)c2)n1)c1cccc(C(F)(F)CO)c1F` [Example 1-70, (R)-N-(1-(3-(1,1-difluoro-2-hydroxyethyl)-2-fluorophenyl)ethyl)-1-(5-(1-(oxetan-3-yl)-1H-1,2,3-triazol-5-yl)pyridin-3-yl)-6-oxo-1,6-dihydropyridazine-3-carboxamide], the IC50 was < 50 nM.
